# Reference: patent publication US20190247353A1, “ACNE STRAIN-SELECTIVE ANTIBACTERIAL AGENT” (MOMOTANI JUNTENKAN CO., LTD., priority 2016, published 2019)
# Read-outs that look alike come from different tables or passages of the source.
# How the values were obtained:
# Type in all cases: cell-based, Propionibacterium acnes
# HL053PA1 strain (RT4) = test: MIC by broth microdilution method, HL053PA1 strain; settings: for MIC: Cutibacterium acnes, read-out: MIC against acne bacterium strain HL053PA1 strain (RT4)
# Method: (§1) An MIC is measured herein according to the broth microdilution method which is the standard method of Japanese Society of Chemotherapy.
# (§2) The antibacterial activity of a test substance was determined based on the minimum inhibitory concentration (MIC). An MIC was measured according to the broth microdilution method which is the standard method of Japanese Society of Chemotherapy.
# (§3) One-loopful of each acne bacterium strain listed in Table 1 was scraped off and inoculated into 5 mL of a GAM broth slant agar medium (pH 7.0, Nissui Pharmaceutical Co., Ltd.).
# (§4) The inoculated acne bacterium strain was precultured at 37° C. in a nitrogen atmosphere (anaerobic condition) for 48 hours. The precultured microbial cells were diluted in a modified GAM broth liquid medium (pH 6.0) to a concentration of 5.0×10^4 cfu/mL (viable cell count per OD660=1 is 2.0×10^9 cfu/mL), to prepare strain suspensions.
# (§5) Each fatty acid (Tokyo Chemical Industry Co., Ltd.) listed in Table 2 was dissolved in dimethylsulfoxide (DMSO) as a solvent such that the concentration became 10,000 μg/mL, and used as a test substance.
# (§6) Each of strain suspensions (5.0×10^4 cfu/mL) was aliquoted in a 96-well round bottom microplate, each of the test substance (fatty acid concentration 10,000 μg/mL) was added at a 1/10 volume to the aliquot and mixed to prepare measurement samples (fatty acid concentration: 1,000 μg/mL). Measurement samples in 2-fold dilution series were prepared using the strain suspension (fatty acid concentration from 0.48 to 1,000 μg/mL).
# (§7) […] The presence or absence of a precipitation of test microbial cells after the incubation was examined and the minimum concentration at which the precipitation of microbial cells […] was regarded as the MIC (μg/mL) of the test substance against the acne bacterium strain.
# HL043PA1 strain (RT5) = test: MIC by broth microdilution method, HL043PA1 strain; settings: for MIC: Cutibacterium acnes, read-out: MIC against acne bacterium strain HL043PA1 strain (RT5)
# Method: as §1, §2, §3
# The inoculated acne bacterium strain was precultured at 37° C. in a nitrogen atmosphere (anaerobic condition) for 48 hours. […]
# as §5, §6
# The measurement samples were incubated under an anaerobic condition at 37° C. for 2 days. The presence or absence of a precipitation of test microbial cells after the incubation was examined and the minimum concentration at which the precipitation of microbial cells […] was regarded as the MIC (μg/mL) of the test substance against the acne bacterium strain.
# [1] = test system: HL053PA1 strain (RT4) and HL043PA1 strain (RT5) versus HL110PA3 strain (RT6); test: Strain-selective antibacterial activity (average of MICRT6/MICRT4 and MICRT6/MICRT5)
# Source text: Herein, “acne strain-selective antibacterial activity” or “strain-selective antibacterial activity” means an index indicating better inhibition of growth of a dominant strain in acne patients compared to that of a dominant strain in healthy subjects. It is expressed by the average value of the values (MICRT6/MICRT4, and MICRT6/MICRTS) obtained by dividing the minimum inhibitory concentration (MIC) of an object substance with respect to the dominant strain in healthy subjects (RT6 strain) (MICRT6) respectively by the MIC of the object substance with respect to the dominant strain in acne patients (RT4 strain) (MICRT4), and by the MIC of the object substance with respect to the dominant strain in acne patients (RT5 strain) (MICRT5).
# The strain-selective antibacterial activity of each test substance (Table 2, right-most column) was evaluated based on the following rating criteria (Table 3). When the strain-selective antibacterial activity is indicated by a numerical range, the rating was based on the minimum value thereof.
# HL110PA3 strain (RT6) [2] = test: MIC by broth microdilution method, HL110PA3 strain; settings: Cutibacterium acnes, read-out: MIC against acne bacterium strain HL110PA3 strain (RT6)
# HL110PA3 strain (RT6) [3] = test: MIC by broth microdilution method, HL110PA3 strain; settings: for MIC: Cutibacterium acnes, 48 h, pH 6.0 modified GAM broth, anaerobic, 37° C., 2 days (Example 1), read-out: MIC against acne bacterium strain HL110PA3 strain (RT6)
# Method: as §1, §2, §3, §4, §5, §6, §7
# [4] = control antibiotics, Comparative Example 2, method as Example 1
# [5] = 48 h, pH 6.0 modified GAM broth, anaerobic, 37° C., 2 days (Example 1)
# [6] = monoacylglycerols, Example 3, method as Example 1
# [7] = control antibacterial agents, Comparative Example 1, method as Example 1
structure (smiles),measurement,setting,value
"CN(C)c1ccc(O)c2c1C[C@H]1C[C@H]3[C@H](N(C)C)C(O)=C(C(N)=O)C(=O)[C@@]3(O)C(O)=C1C2=O [Minocycline, reference compound]",MIC,HL053PA1 strain (RT4); [4],0.24 µg/mL
same,MIC,HL043PA1 strain (RT5); [4],0.49 µg/mL
same,Strain-selective antibacterial activity,"[1]; control antibiotics, Comparative Example 2, for LOD calculated using 0.48 ng/mL as MIC of the RT6 strain",<1.5 × 10^−3
same,MIC,"HL110PA3 strain (RT6) [2]; control antibiotics, Comparative Example 2, method as Example 1, LOD = MIC <0.48 ng/mL",< 0.00048 µg/mL
"CCCCCCCC/C=C\CCCCCCCC(=O)O [Oleic acid (C18:1), Oleic acid]",MIC,HL053PA1 strain (RT4); [5],500 µg/mL
same,MIC,HL043PA1 strain (RT5); [5],62.5 µg/mL
same,MIC,HL110PA3 strain (RT6) [3],> 1000 µg/mL
same,Strain-selective antibacterial activity,[1]; pH 6.0 (Example 1),>9.0
same,Strain-selective antibacterial activity at each pH,[1]; pH 6 (summary Table 10),>9
"CCCCCCC(=O)O [Heptanoic acid (C7:0), Heptanoic acid, reference compound]",MIC,HL053PA1 strain (RT4); [5],125 µg/mL
same,MIC,HL043PA1 strain (RT5); [5],125 µg/mL
same,MIC,HL110PA3 strain (RT6) [3],125 µg/mL
same,Strain-selective antibacterial activity,[1]; pH 6.0 (Example 1),1.0
CCCCCCCCCCCCCCCCCC(=O)OCC(O)CO (centres unmarked) [Monostearin],MIC,HL053PA1 strain (RT4); [6],> 1000 µg/mL
same,MIC,HL043PA1 strain (RT5); [6],> 1000 µg/mL
same,MIC,HL110PA3 strain (RT6) [2]; [6],> 1000 µg/mL
"CCCCCC/C=C\CCCCCCCC(=O)O [Palmitoleic acid (C16:1), Palmitoleic acid, reference compound]",MIC,HL053PA1 strain (RT4); [5],31.3 µg/mL
same,MIC,HL043PA1 strain (RT5); [5],7.81 µg/mL
same,MIC,HL110PA3 strain (RT6) [3],15.6 µg/mL
same,Strain-selective antibacterial activity,[1]; pH 6.0 (Example 1),1.2
"CCCCCCCCCCCC(=O)O [Lauric acid (C12:0), Lauric acid, reference compound]",MIC,HL053PA1 strain (RT4); [5],15.6 µg/mL
same,MIC,HL043PA1 strain (RT5); [5],31.3 µg/mL
same,MIC,HL110PA3 strain (RT6) [3],15.6 µg/mL
Cc1cc(O)ccc1C(C)C [reference compound],MIC against acne bacterium strain HL053PA1 strain (RT4),HL053PA1 strain (RT4); [7],125 µg/mL
same,MIC against acne bacterium strain HL043PA1 strain (RT5),HL043PA1 strain (RT5); [7],125 µg/mL
same,MIC against acne bacterium strain HL110PA3 strain (RT6),HL110PA3 strain (RT6) [3]; [7],62.5 µg/mL
same,Strain-selective antibacterial activity,"[1]; control antibacterial agents, Comparative Example 1",0.50
CCCCCCCCCCCCCC(=O)OCC(O)CO (centres unmarked) [Monomyristin],MIC against acne bacterium strain HL053PA1 strain (RT4),HL053PA1 strain (RT4); [6],500 µg/mL
same,MIC against acne bacterium strain HL043PA1 strain (RT5),HL043PA1 strain (RT5); [6],500 µg/mL
same,MIC against acne bacterium strain HL110PA3 strain (RT6),HL110PA3 strain (RT6) [3]; [6],>1000 µg/mL
same,Strain-selective antibacterial activity,"[1]; monoacylglycerols, Example 3",>2.0
"CCCCCCCC(=O)O [Caprylic acid (C8:0), Caprylic acid, reference compound]",MIC,HL053PA1 strain (RT4); [5],250 µg/mL
same,MIC,HL043PA1 strain (RT5); [5],250 µg/mL
same,MIC,HL110PA3 strain (RT6) [3],125 µg/mL
same,Strain-selective antibacterial activity,[1]; pH 6.0 (Example 1),0.50
